Data on 27 molecules can be found in patent US8263642B2, “Antimicrobial compounds and methods of use thereof” (Vanderbilt University, priority 2008, dated 2012).

Holding throughout (assay type): cell-based, Staphylococcus aureus
The test system of assay [1] is hrtAB-driven expression of the xylE reporter gene. Nature of the assay: XylE reporter assay (hrtAB promoter-xylE), Newman. The note with it: for XylE (0.5): level of XylE induction at 0.5 uM of the compound; for XylE (5.0): level of XylE induction at 5.0 uM of the compound; for XylE (50.0): level of XylE induction at 50.0 uM of the compound; for XylE (0.05): level of XylE induction at 0.05 uM of the compound. An outline of the steps: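 S. aureus carrying hrtAB promoter-xylE fusion in pOS1 grown O/N at 37° C in TSB with chloramphenicol, lysed with lysostaphin. Lysate XylE activity read as 2-hydroxymuconic semialdehyde formation from 0.2 mM pyrocatechol (A375, every minute for 30 minutes), normalised to BCA protein; unit = 1 nmol/min/mg at 30° C.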
In general terms: In a reporter assay the amount or activity of a reporter protein is the signal.

Assay [2] relates to response regulator HssR. Nature of the assay: HssR dependence of XylE inducing activity, Newman. The note with it: whether XylE inducing activity requires HssR. The method, then:
With reference to Table 1, “Luminescence” refers to the raw luminescence value obtained in a luminomter. “Control (82.5 nm)” refers to the luminescence value obtained from heme at 82.5 nM as a positive control in the same plate as the experimental. “% lum” is the percentage of luminescence induced by the compound as compared to the heme control in the same plate. […] All of these assays are described in the application. […] “N/T” indicates the test was not performed. […]
S. aureus strains harboring the appropriate reporter construct were inoculated into 500 μl of TSB containing 10 μg/ml chloramphenicol in 1.5 ml tubes. Cultures were grown O/N at 37° C. with shaking. Bacteria were pelleted by centrifugation and spent medium was aspirated. The pellet was washed once with 500 μl of 20 mM potassium phosphate, pH 7.6, and resuspended in 150 μl of 100 mM potassium phosphate buffer, pH 8.0, 10% (v/v) acetone, 25 μg/ml lysostaphin. After 20 minute incubation at 37° C. and 5 minute incubation on ice, samples were centrifuged at 20,000 g for 30 minutes at 4° C. 1-10 μl of supernatant was added to a 96-well plate and 200 μl of 100 mM potassium phosphate, pH 8.0, 0.2 mM pyrocatechol was added to each well. Formation of 2-hydroxymuconic semialdehyde was tracked by measuring the absorbance at 375 nm every minute for 30 minutes on a Varian MP 50 microplate reader. Protein concentration in samples was determined by BCA (Pierce). One unit of specific activity of XylE in a sample is defined as the formation of 1 nmol of 2-hydroxymuconic semialdehyde per minute per milligram of cellular protein at 30° C. (Chien, Y., Manna, A. C., Projan, S. J., and Cheung, A. L. 1999, “SarA, a global regulator of virulence determinants in Staphylococcus aureus, binds to a conserved motif essential for sar-dependent gene regulation. J. Biol. Chem. 274, 37169-37176).

Assay [3] relates to HssRS-dependent hrtAB expression. Nature of the assay: Luminescence-based assay to monitor HssRS-dependent hrtAB expression (phrtABlux reporter), Newman. Particulars: Newman; for Luminescence: raw luminescence value obtained in a luminometer; for activation at 0.0825 µM: Staphylococcus aureus, NEWMAN, read-out: % Lumi, luminescence induced by the compound compared to the heme control (82.5 nM) in the same plate. The gist of the method:
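S. aureus Newman wild type or ΔhssR carrying a hrtAB promoter–luxCDABE reporter (phrtABlux), grown in TSB with 10 μg/ml chloramphenicol at 37 °C. Light output read against 82.5 nM heme as the in-plate positive control. Activity given as % of heme-induced luminescence.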

Regarding `c1ccc(-c2ccc(CSc3nc4ccccc4[nH]3)cc2)cc1`, in assay [1], the “XylE (0.5)” value was 0.03, the “XylE (5.0)” value is listed as 0.08 and the “XylE (50.0)” value was determined as 11. Further, the “HssR Dep” value in assay [2] is “+”. The same molecule had a Luminescence in assay [3] of 1822.

For `O=c1c2ccccc2nc(/C=C\c2ccccc2Cl)n1-c1ccccc1O`, in assay [1], the “XylE (0.05)” value turned out to be 0.08, the “XylE (0.5)” value is 1, the “XylE (5.0)” value turned out to be 50 and the “XylE (50.0)” value came out at 1. For the same molecule, in assay [2], the “HssR Dep” value is reported as “+”. In assay [3], this molecule registered a Luminescence of 6843.

In the case of `O=C(O)C1CSC(c2cccnc2)=N1` (stereo not drawn), in assay [1], the “XylE (0.05)” value is 1, the “XylE (0.5)” value is given as 1, the “XylE (5.0)” value is listed as 1 and the “XylE (50.0)” value turned out to be 3. Also, the “HssR Dep” value in assay [2] is “−”. The Luminescence in assay [3] stood at 2360.

With `CC(C)CSc1nnc(-c2ccccc2)c(-c2ccccc2)n1`, in assay [1], the “XylE (0.5)” value worked out at 0.04, the “XylE (5.0)” value worked out at 0.07 and the “XylE (50.0)” value amounted to 1. The “HssR Dep” value in assay [2] is on record as “+”. In addition, in assay [3], the activation at 0.0825 µM is 383% and the Luminescence turned out to be 1706.

`O=C(/C=C/c1ccc([N+](=O)[O-])s1)Nc1ccc(I)cc1`: in assay [1], the “XylE (0.05)” value was determined as 0.09, the “XylE (0.5)” value is reported as 4, the “XylE (5.0)” value is recorded as 5 and the “XylE (50.0)” value is 6. In assay [3], the activation at 0.0825 µM is 107% and the Luminescence was found to be 678.

As to `O=C(Nc1ccncc1)c1ccc(COc2ccccc2Cl)cc1`, in assay [1], the “XylE (0.5)” value was 0.09, the “XylE (5.0)” value was 0 and the “XylE (50.0)” value amounted to 1. Moreover, in assay [3], the activation at 0.0825 µM stood at 478% and the Luminescence is reported as 1589.

Take `CCOC(=O)c1c(NC(=O)C2CCCCC2)sc(C(=O)Nc2ccc(C)c(Cl)c2)c1C`: in assay [1], the “XylE (0.05)” value came out at 8, the “XylE (0.5)” value stood at 2, the “XylE (5.0)” value stood at 1 and the “XylE (50.0)” value is 1. Further, the Luminescence in assay [3] is on record as 2374.

Turning to `Cc1c(NC(=O)c2ccc(Cl)c([N+](=O)[O-])c2)cccc1-c1nc2ccccc2o1`, in assay [1], the “XylE (0.5)” value is reported as 0.06, the “XylE (5.0)” value was 0.1 and the “XylE (50.0)” value is listed as 0.5. Also, the Luminescence in assay [3] is on record as 1912.

Consider `O=c1oc2ccccc2c(O)c1C(c1ccc([N+](=O)[O-])o1)c1c(O)c2ccccc2oc1=O`, for which, in assay [1], the “XylE (0.5)” value is reported as 0.02, the “XylE (5.0)” value turned out to be 0.07 and the “XylE (50.0)” value turned out to be 0. In assay [3], the activation at 0.0825 µM was 559% and the Luminescence turned out to be 1939.

As to `Nc1ccccc1C(=O)Nc1nc2ccc(Cl)cc2s1`, in assay [1], the “XylE (0.5)” value is reported as 0.01, the “XylE (5.0)” value worked out at 0.03 and the “XylE (50.0)” value was 0.04. In assay [3], this molecule showed a Luminescence of 1741.

`FC(F)(F)c1cccc(Nc2nc(-c3cccnc3)nc3ccccc23)c1`: in assay [1], the “XylE (0.5)” value amounted to 0.02, the “XylE (5.0)” value turned out to be 0.05 and the “XylE (50.0)” value stood at 0.02. This molecule also displayed a Luminescence in assay [3] of 1616.

As to `Cc1cccc(C(=O)N2N=C(c3cccc(Br)c3)CC2(C)C(F)(F)F)c1` (stereo not drawn), in assay [1], the “XylE (0.5)” value was found to be 0.04, the “XylE (5.0)” value amounted to 0.08 and the “XylE (50.0)” value worked out at 0.1. For the same molecule, in assay [3], the activation at 0.0825 µM turned out to be 572% and the Luminescence is 1683.

`Oc1ccccc1-c1nc(NC2CCCC2)c2ccccc2n1`: in assay [1], the “XylE (0.5)” value is 0.09, the “XylE (5.0)” value is given as 0.02 and the “XylE (50.0)” value is 0. For the same molecule, in assay [3], the activation at 0.0825 µM turned out to be 591% and the Luminescence is 1637.

With `COc1ccc(Cl)cc1NC(=O)Nc1ccc(Cl)cc1`, in assay [1], the “XylE (0.05)” value came to 1, the “XylE (0.5)” value is 0.03, the “XylE (5.0)” value stood at 0 and the “XylE (50.0)” value is recorded as 0.03. In addition, in assay [3], the activation at 0.0825 µM was 180% and the Luminescence is reported as 586.

Take `O=S(=O)(Nc1cc(Cl)ccc1Cl)c1ccc(Cl)cc1`: in assay [1], the “XylE (0.05)” value worked out at 0.02, the “XylE (0.5)” value amounted to 0.07, the “XylE (5.0)” value stood at 0.5 and the “XylE (50.0)” value amounted to 0.1. In assay [3], the activation at 0.0825 µM was found to be 146% and the Luminescence came out at 618.

For the molecule `CC(C)c1ccc(NS(=O)(=O)c2ccc3[nH]c(-c4ccccc4)nc3c2)cc1`, in assay [1], the “XylE (0.05)” value is reported as 1, the “XylE (0.5)” value is 1, the “XylE (5.0)” value stood at 9 and the “XylE (50.0)” value was 1. For the same molecule, the Luminescence in assay [3] was 2146.

For `NS(=O)(=O)c1ccc(NC(=O)CCCOc2ccc(Cl)cc2Cl)cc1`, in assay [1], the “XylE (0.05)” value is recorded as 0.03, the “XylE (0.5)” value turned out to be 0.05, the “XylE (5.0)” value is recorded as 3 and the “XylE (50.0)” value is 0. In assay [3], the activation at 0.0825 µM came out at 45.6% and the Luminescence was determined as 325.

For `Cc1cccc(C(=O)Nc2ccc(-c3nc4ccccc4o3)cc2)c1` [drawing 27], in assay [1], the “XylE (0.05)” value amounted to 0.07, the “XylE (0.5)” value amounted to 0.09, the “XylE (5.0)” value amounted to 0.08 and the “XylE (50.0)” value worked out at 0.2. Also, in assay [3], the activation at 0.0825 µM was determined as 294% and the Luminescence came out at 837.

Take `Brc1ccc(CN2CCN(c3ccccc3)CC2)o1`: in assay [1], the “XylE (0.05)” value is on record as 0.07, the “XylE (0.5)” value is 0.05, the “XylE (5.0)” value stood at 1 and the “XylE (50.0)” value is 0.02. For the same molecule, in assay [3], the activation at 0.0825 µM is 39.3% and the Luminescence is on record as 166.

Regarding `Cc1cc(O)c(NC(=S)NC(=O)c2ccc(C(C)(C)C)cc2)cc1C`, in assay [1], the “XylE (0.05)” value came to 0.09, the “XylE (0.5)” value was determined as 0.2, the “XylE (5.0)” value turned out to be 0.2 and the “XylE (50.0)” value is reported as 0.3. In assay [3], the activation at 0.0825 µM stood at 127% and the Luminescence is 808.

Consider `Cc1ccc(O)c(NC(=O)c2nn3c(c2Br)NC(c2ccco2)CC3C(F)(F)F)c1` (stereo not drawn) [drawing 60], for which, in assay [1], the “XylE (0.05)” value is 0.07, the “XylE (0.5)” value was found to be 0.7, the “XylE (5.0)” value was determined as 11 and the “XylE (50.0)” value is recorded as 1. In assay [3], this molecule came in with a Luminescence of 1949.

For the molecule `CCOc1ccc(NC(=O)c2sc3nc(C)nc(N4CCCCC4)c3c2C)cc1`, in assay [1], the “XylE (0.05)” value is 1, the “XylE (0.5)” value came out at 0.07, the “XylE (5.0)” value turned out to be 1 and the “XylE (50.0)” value is listed as 1. Further, the Luminescence in assay [3] stood at 2277.

With `O=C1c2ccccc2C(=O)C1C1=NNC(c2ccccc2)C1` (stereo not drawn), in assay [1], the “XylE (0.05)” value is on record as 0.05, the “XylE (0.5)” value was 0.06, the “XylE (5.0)” value was found to be 0.1 and the “XylE (50.0)” value is listed as 0.8. For the same molecule, in assay [3], the activation at 0.0825 µM was 81.7% and the Luminescence came to 2680.

Regarding `O=C(Nc1ccc(C(F)(F)F)cc1)c1cc(S(=O)(=O)NCc2ccc(F)cc2)ccc1F`, in assay [1], the “XylE (0.5)” value is 0, the “XylE (5.0)” value is 0.03 and the “XylE (50.0)” value is 0.03. For the same molecule, in assay [3], the activation at 0.0825 µM came out at 493% and the Luminescence stood at 1710.

For the molecule `O=[N+]([O-])c1ccc(O)c(/C=N/c2ccccc2-c2nc3ccccc3s2)c1`, in assay [1], the “XylE (0.05)” value was 1, the “XylE (0.5)” value was found to be 50, the “XylE (5.0)” value was determined as 1 and the “XylE (50.0)” value is 1. In assay [3], the activation at 0.0825 µM is 630% and the Luminescence is listed as 2904.

As for `O=C(COc1nsnc1N1CCOCC1)Nc1ccccc1`, in assay [1], the “XylE (0.5)” value worked out at 0.05, the “XylE (5.0)” value was determined as 0.02 and the “XylE (50.0)” value turned out to be 0.03. In assay [3], the activation at 0.0825 µM is 207% and the Luminescence is reported as 1594.

For the molecule `COc1cc(/C=C/c2ccc3cccc(O)c3n2)c(Cl)cc1O`, in assay [1], the “XylE (0.5)” value came out at 1, the “XylE (5.0)” value worked out at 0.5 and the “XylE (50.0)” value is reported as 0. For the same molecule, in assay [3], the activation at 0.0825 µM turned out to be 533% and the Luminescence was 1722.
